Assay results: paper PMC7284870, “Antimicrobial Peptides from Rat-Tailed Maggots of the Drone Fly Eristalis tenax Show Potent Activity against Multidrug-Resistant Gram-Negative Bacteria” (Microorganisms, 2020)
Converted amounts (≈) assume the structure as drawn. Where two headings read alike, the source gives them in different places.

Columns and labels:
Assay in all cases: MIC, clinical isolates
Type in all cases: cell-based
[1] = test system: Citrobacter freundii clinical isolate (1); settings: Table S1, RKI 604/16
Description: (§1) The strains that were used in this study (Table 2 and Table S1) were cultivated at 37 °C in cation-adjusted Mueller–Hinton broth (CAMB) in Erlenmeyer flasks, or on the same medium with agar in Petri dishes. Exceptionally, Mycobacterium smegmatis was cultivated at 37 °C in brain heart infusion (BHI) medium that was supplemented with 1% Tween-80 in Erlenmeyer flasks, or on the same medium lacking detergent but with agar in Petri dishes. Strains listed with Robert Koch Institute (RKI) strain numbers are clinical isolates from the RKI strain collection originating from hospitalized patients in Germany. The remaining strains originated from the Sanofi strain collection and they were originally purchased from the American Type Culture Collection or the German Collection of Microorganisms and Cell Cultures. Meropenem/colistin-resistant strains were maintained, as described above, with the appropriate antibiotic added at levels below the minimal inhibitory concentration (MIC).
(§2) The MIC values were determined in 384-well microtiter plates with an assay volume of 20 µL. Immediately before each assay, the cultures of test organisms (bacteria grown for 18 h, Candida albicans and M. smegmatis grown for 48 h) were diluted with the appropriate medium to a density of 1 × 10^6 cells/mL (C. albicans), 1 × 10^5 cells/mL (M. smegmatis) or 5 × 10^5 cells per mL (other species). […] We transferred 2-µL aliquots from this dilution series to new 384-well microtiter plates while using a CyBio-Well 384-channel automated pipettor (Analytic Jena, Jena, Germany) and added 18 µL of the diluted suspension of each test species using a Viafill reagent dispenser (Integra), thus reducing the final peptide concentration 10-fold to the range 1024–0.03125 µg/mL. […] The growth of M. smegmatis was measured using the BacTiter-Glo luminescence test system (Promega, Madison, WI, USA). The growth of the other species was determined by visual inspection of the microtiter plate and turbidimetry based on the optical density at 600 nm (OD600). The MIC was defined as the peptide concentration at which no bacterial growth was observed. We supplemented the test medium with either 150 mM NaCl or 1.25 mM CaCl2 to represent monovalent and divalent cations to simulate physiological conditions.

[2] = test system: Acinetobacter pittii clinical isolate (1); settings: Table S1, RKI 588/16
Description: as §1, §2

[3] = test system: Morganella morganii clinical isolates (4)
Description: as §1, §2

[4] = test system: Enterobacter cloacae clinical isolates (23)
Description: as §1, §2

[5] = test system: Stenotrophomonas maltophilia clinical isolates (2); settings: Table S1, RKI 729/15
Description: as §1, §2

[6] = test system: Salmonella enterica clinical isolates (10)
Description: as §1, §2

[7] = test system: Klebsiella oxytoca clinical isolates (2); settings: Table S1, RKI 609/16
Description: as §1, §2

[8] = test system: Acinetobacter baumannii clinical isolates (20)
Description: as §1, §2

[9] = test system: Escherichia coli clinical isolates (26)
Description: as §1, §2

[10] = test system: Klebsiella pneumoniae clinical isolates (21)
Description: as §1, §2

`C[C@@H](O)[C@H]1C(=O)N2C(C(=O)O)=C(S[C@@H]3CN[C@H](C(=O)N(C)C)C3)[C@H](C)[C@H]12` [MEM, meropenem] was tested, and the MIC [1] was > 64 µg/mL, the MIC [2] was ≤ 0.5 µg/mL and the MIC ([3]; Table S1, RKI 81/15) was ≤ 0.5 µg/mL. The MIC ([3]; Table S1, RKI 93/15) was ≤ 0.5 µg/mL, the MIC ([3]; Table S1, RKI 599/16) was > 64 µg/mL and the MIC ([3]; Table S1, RKI 659/13) was ≤ 0.5 µg/mL. The MIC ([4]; Table S1, RKI 5/14) was 4 µg/mL (≈ 10.4 µM), the MIC ([4]; Table S1, RKI 33/16) was 8 µg/mL (≈ 20.9 µM) and the MIC ([4]; Table S1, RKI 34/16) was 32 µg/mL (≈ 83.4 µM). For the same molecule, the MIC ([4]; Table S1, RKI 37/14) was ≤ 0.5 µg/mL, the MIC ([4]; Table S1, RKI 76/15) was ≤ 0.5 µg/mL and the MIC ([4]; Table S1, RKI 113/16) was 2 µg/mL (≈ 5.22 µM). The MIC ([4]; Table S1, RKI 136/15) was > 64 µg/mL, the MIC ([4]; Table S1, RKI 141/15) was 2 µg/mL (≈ 5.22 µM) and the MIC ([4]; Table S1, RKI 210/15) was ≤ 0.5 µg/mL. For the same molecule, the MIC ([4]; Table S1, RKI 215/15) was ≤ 0.5 µg/mL, the MIC ([4]; Table S1, RKI 243/15) was ≤ 0.5 µg/mL and the MIC ([4]; Table S1, RKI 287/13) was 64 µg/mL (≈ 167 µM). For the same molecule, the MIC ([4]; Table S1, RKI 308/13) was 8 µg/mL (≈ 20.9 µM), the MIC ([4]; Table S1, RKI 348/15) was 1 µg/mL (≈ 2.61 µM) and the MIC ([4]; Table S1, RKI 361/13) was ≤ 0.5 µg/mL. For the same molecule, the MIC ([4]; Table S1, RKI 460/16) was 64 µg/mL (≈ 167 µM), the MIC ([4]; Table S1, RKI 466/13) was 16 µg/mL (≈ 41.7 µM) and the MIC ([4]; Table S1, RKI 506/15) was 16 µg/mL (≈ 41.7 µM). The MIC ([4]; Table S1, RKI 546/13) was ≤ 0.5 µg/mL, the MIC ([4]; Table S1, RKI 571/13) was ≤ 0.5 µg/mL and the MIC ([4]; Table S1, RKI 733/14) was 64 µg/mL (≈ 167 µM). The MIC ([4]; Table S1, RKI 766/15) was ≤ 0.5 µg/mL, the MIC [5] was > 64 µg/mL and the MIC ([6]; Table S1, RKI 205/14) was ≤ 0.5 µg/mL. For the same molecule, the MIC ([6]; Table S1, RKI 206/14) was ≤ 0.5 µg/mL, the MIC ([6]; Table S1, RKI 270/14) was ≤ 0.5 µg/mL and the MIC ([6]; Table S1, RKI 277/14) was ≤ 0.5 µg/mL. For the same molecule, the MIC ([6]; Table S1, RKI 419/14) was ≤ 0.5 µg/mL, the MIC ([6]; Table S1, RKI 436/14) was ≤ 0.5 µg/mL and the MIC ([6]; Table S1, RKI 437/14) was ≤ 0.5 µg/mL. For the same molecule, the MIC ([6]; Table S1, RKI 532/14-1) was ≤ 0.5 µg/mL, the MIC ([6]; Table S1, RKI 533/14) was ≤ 0.5 µg/mL and the MIC ([6]; Table S1, RKI 583/14) was ≤ 0.5 µg/mL. The MIC [7] was 16 µg/mL (≈ 41.7 µM), the MIC ([8]; Table S1, RKI 3/15) was 32 µg/mL (≈ 83.4 µM) and the MIC ([8]; Table S1, RKI 4/15) was 32 µg/mL (≈ 83.4 µM). For the same molecule, the MIC ([8]; Table S1, RKI 11/16) was > 64 µg/mL, the MIC ([8]; Table S1, RKI 12/16) was 64 µg/mL (≈ 167 µM) and the MIC ([8]; Table S1, RKI 13/16) was > 64 µg/mL. For the same molecule, the MIC ([8]; Table S1, RKI 14/16) was > 64 µg/mL, the MIC ([8]; Table S1, RKI 16/15) was > 64 µg/mL and the MIC ([8]; Table S1, RKI 16/16) was > 64 µg/mL. The MIC ([8]; Table S1, RKI 30/16) was > 64 µg/mL, the MIC ([8]; Table S1, RKI 32/16) was 64 µg/mL (≈ 167 µM) and the MIC ([8]; Table S1, RKI 70/16) was > 64 µg/mL. The MIC ([8]; Table S1, RKI 230/15) was > 64 µg/mL, the MIC ([8]; Table S1, RKI 231/15) was 64 µg/mL (≈ 167 µM) and the MIC ([8]; Table S1, RKI 271/16) was > 64 µg/mL. The MIC ([8]; Table S1, RKI 272/16) was > 64 µg/mL, the MIC ([8]; Table S1, RKI 377/15) was 8 µg/mL (≈ 20.9 µM) and the MIC ([8]; Table S1, RKI 523/16) was 32 µg/mL (≈ 83.4 µM). The MIC ([8]; Table S1, RKI 584/16) was ≤ 0.5 µg/mL, the MIC ([8]; Table S1, RKI 596/16) was > 64 µg/mL and the MIC ([9]; Table S1, RKI 75/15) was > 64 µg/mL. The MIC ([9]; Table S1, RKI 95/15) was ≤ 0.5 µg/mL, the MIC ([9]; Table S1, RKI 97/15) was ≤ 0.5 µg/mL and the MIC ([9]; Table S1, RKI 314/16) was ≤ 0.5 µg/mL. The MIC ([9]; Table S1, RKI 317/16) was ≤ 0.5 µg/mL, the MIC ([9]; Table S1, RKI 330/16) was ≤ 0.5 µg/mL and the MIC ([9]; Table S1, RKI 443/16) was 4 µg/mL (≈ 10.4 µM). For the same molecule, the MIC ([9]; Table S1, RKI 462/16) was ≤ 0.5 µg/mL, the MIC ([9]; Table S1, RKI 513/16) was ≤ 0.5 µg/mL and the MIC ([9]; Table S1, RKI 514/16) was ≤ 0.5 µg/mL. For the same molecule, the MIC ([9]; Table S1, RKI 515/16) was ≤ 0.5 µg/mL, the MIC ([9]; Table S1, RKI 521/16) was ≤ 0.5 µg/mL and the MIC ([9]; Table S1, RKI 524/16) was ≤ 0.5 µg/mL. For the same molecule, the MIC ([9]; Table S1, RKI 525/16) was ≤ 0.5 µg/mL, the MIC ([9]; Table S1, RKI 581/16) was ≤ 0.5 µg/mL and the MIC ([9]; Table S1, RKI 582/16) was ≤ 0.5 µg/mL. For the same molecule, the MIC ([9]; Table S1, RKI 583/16) was ≤ 0.5 µg/mL, the MIC ([9]; Table S1, RKI 590/16) was ≤ 0.5 µg/mL and the MIC ([9]; Table S1, RKI 592/16) was ≤ 0.5 µg/mL. The MIC ([9]; Table S1, RKI 593/16) was ≤ 0.5 µg/mL, the MIC ([9]; Table S1, RKI 602/16) was ≤ 0.5 µg/mL and the MIC ([9]; Table S1, RKI 607/16) was 8 µg/mL (≈ 20.9 µM). The MIC ([9]; Table S1, RKI 867/14) was 8 µg/mL (≈ 20.9 µM), the MIC ([9]; Table S1, RKI 1023/14) was ≤ 0.5 µg/mL and the MIC ([10]; Klebsiella pneumoniae, Table S1, RKI 600/16, read-out: MIC) was ≤ 0.5 µg/mL. For the same molecule, the MIC ([10]; Table S1, RKI 19/16) was ≤ 0.5 µg/mL, the MIC ([10]; Table S1, RKI 80/15) was ≤ 0.5 µg/mL and the MIC ([10]; Table S1, RKI 94/15) was ≤ 0.5 µg/mL. The MIC ([10]; Table S1, RKI 95/16) was ≤ 0.5 µg/mL, the MIC ([10]; Table S1, RKI 107/15) was 1 µg/mL (≈ 2.61 µM) and the MIC ([10]; Table S1, RKI 138/16) was ≤ 0.5 µg/mL. The MIC ([10]; Table S1, RKI 164/16) was > 64 µg/mL, the MIC ([10]; Table S1, RKI 229/15) was 16 µg/mL (≈ 41.7 µM) and the MIC ([10]; Table S1, RKI 320/16) was ≤ 0.5 µg/mL. For the same molecule, the MIC ([10]; Table S1, RKI 328/16) was 64 µg/mL (≈ 167 µM), the MIC ([10]; Table S1, RKI 373/16-1) was ≤ 0.5 µg/mL and the MIC ([10]; Table S1, RKI 393/16) was ≤ 0.5 µg/mL. The MIC ([10]; Table S1, RKI 461/16) was ≤ 0.5 µg/mL, the MIC ([10]; Table S1, RKI 503/15) was 32 µg/mL (≈ 83.4 µM) and the MIC ([10]; Table S1, RKI 544/13) was > 64 µg/mL. For the same molecule, the MIC ([10]; Table S1, RKI 577/15) was ≤ 0.5 µg/mL and the MIC ([10]; Table S1, RKI 908/15) was 32 µg/mL (≈ 83.4 µM).
